{"source": "patent US20180346920A1", "about": "“Mutations Conferring Acetyl-Coa Carboxylase (ACC) Inhibiting Herbicide Tolerance in Sorghum” (Chromatin, Inc., priority 2017, published 2018)", "key": {"[1]": {"tested_on": "sorghum (Inbred BTX430) calli", "assay": "Kill curve experiment on sorghum calli", "assay_type": "cell-based, Sorghum bicolor", "settings": "0.2 uM concentration; three week old BTX430 calli", "experimental": "Callus production from the isolation of immature embryos (IEs) was accomplished by removing immature seeds from greenhouse grown sorghum (Inbred BTX430) panicles approximately 14 days after anthesis and surface sterilized in ethanol followed by a bleach solution and then washed in sterilized water. Immature embryos were isolated from seeds and transferred to medium with 20 IEs per plate. Cultures were grown for two weeks at (28° C.). All explants which produced somatic embryogenic calli were transferred to growth medium and cultured for an additional 4-6 days at 28° C. Explants were transferred to fresh media every three weeks until the entire callus turned into compact and friable green callus. Three weeks old freshly subcultured calli were used for the experiment\nThe herbicide active ingredient molecule of ACC herbicide Assure II (Quizalofop-p-ethyl) was used for screening and selection process. For identifying the optimum concentration for screening, a kill curve experiment with concentrations ranging from 0.05 to 1.0 μM of a.i. molecules were tested. Three week old calli were cut into small pieces of 4-5 mm dia and 25 pieces were tested in three replications for each concentration. Concentrations used were: 0.05, 0.1, 0.2, 0.3, 0.4, 0.5 and 1 μM Quizalofop p-ethyl. […]"}, "[2]": {"tested_on": "FOP herbicide resistant calli (FP-1 to FP-19)", "assay": "Resistant calli tested on higher herbicide concentrations in culture medium", "assay_type": "cell-based, Sorghum bicolor", "experimental": "The herbicide active ingredient molecule of ACC herbicide Assure II (Quizalofop-p-ethyl) was used for screening and selection process. For identifying the optimum concentration for screening, a kill curve experiment with concentrations ranging from 0.05 to 1.0 μM of a.i. molecules were tested. Three week old calli were cut into small pieces of 4-5 mm dia and 25 pieces were tested in three replications for each concentration. Concentrations used were: 0.05, 0.1, 0.2, 0.3, 0.4, 0.5 and 1 μM Quizalofop p-ethyl. As 50% of calli were killed at 0.2 uM concentration, the following selection criteria was followed for entire screening process. Selection process was started with 0.05 um and doubled the concentration for every 3 weeks and the calli surviving on 1.0 uM was considered as resistant calli.\nFor the chemical mutagenesis, two chemical mutagens Ethyl methanesulfonate (EMS) (0.25 and 0.5%) and Sodium azide (0.5 and 1.0 uM) were used. These mutagens at specified concentration were directly added into the culture media. The calli pieces were first cultured on the media containing the mutagens for 6 and 12 hrs and then transferred to the above mentioned selection procedure. A total of 16 experiments were conducted with varying amount of calli pieces. After 21 to 24 weeks of selection, the surviving calli were considered as herbicide resistant calli. […]"}}}
{"smiles": "CCOC(=O)[C@@H](C)Oc1ccc(Oc2cnc3cc(Cl)ccc3n2)cc1", "note": "[Quizalofop-p-ethyl]", "values": [{"measurement": "calli killed", "setting": "[1]", "result": 50, "unit": "%"}, {"measurement": "survival of FOP resistant calli", "setting": "[2]; 100 μM, FP-7, FP-8, FP-9, FP-10, FP-13, FP-15", "result": "surviving"}, {"measurement": "growth of FOP herbicide resistant calli on tissue culture medium", "setting": "[2]; FP-13, 1, 1.5, 2, 5, 10 μM", "result": "growing"}]}
